Test results reported in US20200268702A1, “METHODS OF TREATING […]” (Amarin Pharmaceuticals Ireland Limited, priority 2013, published 2020).

System: patients with fasting triglyceride levels ≥200 mg/dl and <500 mg/dl despite statin therapy
Assay: ANCHOR study: 12-week placebo-controlled study of >96% E-EPA on statin therapy, metabolic syndrome subgroup
Assay type: in vivo, human
Protocol: A multi-center, placebo-controlled, randomized, double-blind, 12-week study was performed to evaluate the efficacy and safety of >96% E-EPA in patients with fasting triglyceride levels ≥200 mg/dl and <500 mg/dl despite statin therapy (the mean of two qualifying entry values needed to be ≥185 mg/dl and at least one of the values needed to be ≥200 mg/dl). The primary objective of the study was to determine the efficacy of >96% E-EPA 2 g daily and 4 g daily, compared to placebo, in lowering fasting TG levels in patients with high risk for cardiovascular disease and with fasting TG levels ≥200 mg/dL and <500 mg/dL, despite treatment to LDL-C goal on statin therapy.
The population for this study was men and women >18 years of age with a body mass index ≤45 kg/m^2 with fasting TG levels greater than or equal to 200 mg/dl and less than 500 mg/dl and on a stable does of statin therapy (with or without ezetimibe). The statin was atorvostatin, rosuvastatin or simvastatin. The dose of statin must have been stable for ≥4 weeks prior to the LDL-C/TG baseline qualifying measurement for randomization. The statin dose was optimized such that the patients are at their LDL-C goal at the LDL-C/TG baseline qualifying measurements. The same statin at the same dose was continued until the study ended.
Approximately 702 patients were randomized at approximately 80 centers in the U.S. The study was a 18- to 20-week, Phase 3, multi-center study consisting of 2 study periods: (1) A 6- to 8-week screening period that included a diet and lifestyle stabilization, a non-statin lipid-altering treatment washout, and an LDL-C and TG qualifying period and (2) A 12-week, double-blind, randomized, placebo-controlled treatment period.
After confirmation of qualifying fasting LDL-C and TG values, eligible patients entered a 12-week, randomized, double-blind treatment period. At Visit 4 (Week 0), patients were randomly assigned to 1 of the following treatment groups: • >96% E-EPA 2 g daily, • >96% E-EPA 4 g daily, or • Placebo.
>96% E-EPA was provided in 1 g liquid-filled, oblong, gelatin capsules. The matching placebo capsule was filled with light liquid paraffin and contained 0 g of >96% E-EPA. >96% E-EPA capsules were to be taken with food (i.e. with or at the end of a meal).
During the double-blind treatment period, patients were to take 2 capsules (>96% E-EPA or matching placebo) in the morning and 2 capsules in the evening for a total of 4 capsules per day. • Patients in the >96% E-EPA 2 g/day treatment group received 1>96% E-EPA 1 g capsule and 1 matching placebo capsule in the morning and in the evening. • Patients in the >96% E-EPA 4 g/day treatment group received 2>96% E-EPA 1 g capsules in the morning and evening.
The primary efficacy variable for the double-blind treatment period was percent change in TG from baseline to Week 12 endpoint. […]

[1] = 4 g/day, week 12, listed as IPE

CC/C=C\C/C=C\C/C=C\C/C=C\C/C=C\CCCC(=O)OCC [AMR101, ethyl eicosapentaenoate]
Apo B, Change from Baseline, % (2 g/day, week 12): 3.3% | Apo B, End of Treatment, median (IQR) (2 g/day, week 12): 95.0 (23.00) mg/dL | Apo B, Median % Change From Baseline vs Placebo (2 g/day, week 12): −2.6% | HDL-C, Change from Baseline, % (2 g/day, week 12): 2.2% | HDL-C, End of Treatment, median (IQR) (2 g/day, week 12): 38.0 (12.00) mg/dL | HDL-C, Median % Change From Baseline vs Placebo (2 g/day, week 12): −1.4% | LDL-C, Change from Baseline, % (2 g/day, week 12): 2.5% | LDL-C, End of Treatment, median (IQR) (2 g/day, week 12): 87.0 (28.00) mg/dL | LDL-C, Median % Change From Baseline vs Placebo (2 g/day, week 12): −2.4% | Non-HDL-C, Change from Baseline, % (2 g/day, week 12): 2.7% | Non-HDL-C, End of Treatment, median (IQR) (2 g/day, week 12): 134.0 (44.00) mg/dL | Non-HDL-C, Median % Change From Baseline vs Placebo (2 g/day, week 12): −4.4% | TG, Change from Baseline, % (2 g/day, week 12): −5.8% | TG, End of Treatment, median (IQR) (2 g/day, week 12): 246.0 (117.00) mg/dL | TG, Median % Change From Baseline vs Placebo (2 g/day, week 12): −10.3% | hsCRP, Change from Baseline, % (2 g/day, week 12): 8.4% | hsCRP, End of Treatment, median (IQR) (2 g/day, week 12): 2.5 (3.35) mg/L | hsCRP, Median % Change From Baseline vs Placebo (2 g/day, week 12): −7.6% | Apo B, Change from Baseline, % (4 g/day, week 12): −2.2% | Apo B, End of Treatment, median (IQR) (4 g/day, week 12): 89.0 (26.00) mg/dL | HDL-C, Change from Baseline, % (4 g/day, week 12): 0.0% | HDL-C, End of Treatment, median (IQR) (4 g/day, week 12): 36.0 (12.00) mg/dL | HDL-C, Median % Change From Baseline vs Placebo (4 g/day, week 12): −4.0% | LDL-C, Change from Baseline, % (4 g/day, week 12): 2.1% | LDL-C, End of Treatment, median (IQR) (4 g/day, week 12): 83.0 (31.00) mg/dL | Non-HDL-C, Change from Baseline, % (4 g/day, week 12): −5.3% | Non-HDL-C, End of Treatment, median (IQR) (4 g/day, week 12): 121.0 (37.00) mg/dL | TG, Change from Baseline, % (4 g/day, week 12): −17.4% | TG, End of Treatment, median (IQR) (4 g/day, week 12): 221.0 (93.50) mg/dL | hsCRP, Change from Baseline, % (4 g/day, week 12): −3.4% | hsCRP, End of Treatment, median (IQR) (4 g/day, week 12): 2.0 (3.00) mg/L | Apo B, Median % Change From Baseline vs Placebo [1]: −8.8% | LDL-C, Median % Change From Baseline vs Placebo [1]: −5.2% | Non-HDL-C, Median % Change From Baseline vs Placebo [1]: −13.5% | TG, Median % Change From Baseline vs Placebo [1]: −21.7% | hsCRP, Median % Change From Baseline vs Placebo [1]: −23.0%
